Data reported in US6426355B1, “Heterocyclic carboxamide-containing thiourea inhibitors of herpes viruses containing phenylenediamine group” (American Home Products, priority 1998, dated 2002).
Values after ≈ are worked out from the molar mass of the structure shown.

What was measured:
[1] = test system: VZV strain Ellen; test: VZV Antiviral (ELISA) assay; assay type: cell-based; conditions: VZV strain Ellen in HFF cells; for % inhibition 10 ug/ml VZV: at 10 ug/ml
Summary of the method: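 Low-MOI (<0.1) Ellen infection of HFF overnight; cell mix plated 3.5×10^4/well with compound, DMEM + 2% FBS, 3 d, 37° C, 5% CO2. Fix, anti-gpII mAb ELISA, MUG substrate, fluorescence. IC50 vs compound-free signal.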

[2] = test system: HSV-1; test: HSV Antiviral (ELISA) assay; assay type: cell-based; conditions: HSV-1 in Vero cells
Summary of the method: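 Vero cells in DMEM/2% FBS pretreated with compound 30 min before HSV-1 infection (MOI 0.006), then ~24 h at 37 °C. Viral gD detected by ELISA with β-galactosidase secondary and 4-methylumbelliferyl-galactoside (ex 365/em 450 nm); IC50 from fluorescence versus untreated infected cells.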

[3] = test system: HCMV recombinant mutant virus (RV145); test: HCMV microtiter plate assay (beta-glucuronidase reporter); assay type: cell-based, Human Cytomegalovirus; conditions: HCMV in human foreskin fibroblasts
Summary of the method: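 Human foreskin fibroblasts were infected with RV145 in the presence of inhibitor. β-glucuronidase under a viral promoter served as the replication marker. At 96 h post-infection, lysates in pH 7.0 phosphate with Triton X-100/sarkosyl were assayed colorimetrically or fluorometrically, and IC50 was estimated from varying inhibitor amounts.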

SMILES	IC50 (ug/ml) VZV [1] [µg/mL]	% inhibition 10 ug/ml VZV [1] [%]	IC50 (ug/ml) HSV [2] [µg/mL]	IC50 (ug/ml) HCMV [3] [µg/mL]
CCOC(=O)Nc1ccc(NC(=S)Nc2ccc(NC(=O)c3ccco3)cc2)cc1Cl [Example 398]	>10	5	>10	0.13 (≈ 0.283 µM)
O=C(Nc1ccc(NC(=S)Nc2ccc(NC(=O)c3ccco3)cc2)cc1Cl)c1ccccc1 [Example 403]	>15	108	6 (≈ 12.2 µM)	0.09 (≈ 0.183 µM)
O=C(CN1CCSCC1)Nc1ccc(NC(=S)Nc2ccc(NC(=O)c3ccco3)cc2)cc1Cl [Example 406]	>10	28	>10	0.12 (≈ 0.226 µM)
CC(=O)Nc1ccc(NC(=S)Nc2ccc(NC(=O)c3ccco3)cc2)cc1Cl [Example 409]	>10	5	>10	2 (≈ 4.66 µM)
CCCN(CCC)CC(=O)Nc1ccc(NC(=S)Nc2ccc(NC(=O)c3ccco3)cc2)cc1Cl [Example 411]	2 (≈ 3.79 µM)	99	8 (≈ 15.1 µM)	0.024 (≈ 0.0454 µM)
CCN(CC)CC(=O)Nc1ccc(NC(=S)Nc2ccc(NC(=O)c3ccco3)cc2)cc1Cl [Example 413]	5 (≈ 10 µM)	103	5 (≈ 10 µM)	0.081 (≈ 0.162 µM)
O=C(CN1CCCC1)Nc1ccc(NC(=S)Nc2ccc(NC(=O)c3ccco3)cc2)cc1Cl [Example 416]	>15	87	>10	0.25 (≈ 0.502 µM)
Nc1ccc(NC(=S)Nc2ccc(NC(=O)c3ccco3)cc2)cc1Cl [Example 421]	>10	–	8 (≈ 20.7 µM)	0.75 (≈ 1.94 µM)
O=C(CN1CCCCCC1)Nc1ccc(NC(=S)Nc2ccc(NC(=O)c3ccco3)cc2)cc1Cl [Example 422]	>10	69	5 (≈ 9.5 µM)	0.058 (≈ 0.11 µM)
CC1CCCCN1CC(=O)Nc1ccc(NC(=S)Nc2ccc(NC(=O)c3ccco3)cc2)cc1Cl (stereo not drawn) [Example 424]	0.7 (≈ 1.33 µM)	103	3 (≈ 5.7 µM)	0.09 (≈ 0.171 µM)
Nc1cccc(NC(=S)Nc2ccc(NC(=O)c3ccco3)cc2)c1 [Example 430]	>10	–	>10	0.4 (≈ 1.14 µM)
O=C(Nc1ccc(NC(=S)Nc2cccc(C(F)(F)F)c2)cc1)c1ccco1 [Example 431]	>10	–	>10	0.06 (≈ 0.148 µM)
Nc1cc(Cl)cc(NC(=S)Nc2ccc(NC(=O)c3ccco3)cc2)c1 [Example 435]	0.9 (≈ 2.33 µM)	94	10 (≈ 25.8 µM)	0.08 (≈ 0.207 µM)
Cc1cccc(NC(=S)Nc2ccc(NC(=O)c3ccco3)cc2)c1 [Example 436]	>10	–	10 (≈ 28.5 µM)	0.15 (≈ 0.427 µM)
O=C(Nc1ccc(NC(=S)Nc2ccc(NC(=O)c3ccccc3F)cc2)cc1Cl)OCCN1CCCCC1 [Example 438]	1.5 (≈ 2.63 µM)	73	5 (≈ 8.77 µM)	3 (≈ 5.26 µM)
O=C(Nc1ccc(NC(=S)Nc2ccc(NC(=O)c3ccco3)cc2)cc1Cl)OCCN1CCCCC1 [Example 439]	>10	46	9 (≈ 16.6 µM)	0.5 (≈ 0.922 µM)
Nc1ccc(Cl)cc1NC(=S)Nc1ccc(NC(=O)c2ccco2)cc1 [Example 440]	9 (≈ 23.3 µM)	–	1 (≈ 2.58 µM)	0.3 (≈ 0.775 µM)
N#Cc1cccc(NC(=S)Nc2ccc(NC(=O)c3ccco3)cc2)c1 [Example 441]	>10	–	>10	0.17 (≈ 0.469 µM)
O=C(Nc1ccc(NC(=S)Nc2ccc(Cl)nc2)cc1)c1ccco1 [Example 445]	>10	–	10 (≈ 26.8 µM)	0.15 (≈ 0.402 µM)
Nc1c(Cl)cccc1NC(=S)Nc1ccc(NC(=O)c2ccco2)cc1 [Example 446]	>10	–	10 (≈ 25.8 µM)	0.7 (≈ 1.81 µM)
